Experimental data taken from ChEMBL document CHEMBL1255301, “Activity of Tigecycline against Coryneform Bacteria of Clinical Interest and Listeria monocytogenes” (2008).
Values after ≈ are worked out from the molar mass of the structure shown.

Experiments:
Format in all cases: functional
[1] = system: Corynebacterium minutissimum; assay: Antimicrobial activity against Corynebacterium minutissimum isolates by CLSI M45-A protocol based microdilution method
[2] = system: Corynebacterium urealyticum; assay: Antimicrobial activity against Corynebacterium urealyticum isolates by CLSI M45-A protocol based microdilution method
[3] = system: Arcanobacterium haemolyticum; assay: Antimicrobial activity against Arcanobacterium haemolyticum isolates by CLSI M45-A protocol based microdilution method
Prescottella equi = assay: Antimicrobial activity against Rhodococcus equi isolates by CLSI M45-A protocol based microdilution method
Listeria monocytogenes = assay: Antimicrobial activity against Listeria monocytogenes isolates by CLSI M45-A protocol based microdilution method
Corynebacterium striatum = assay: Antimicrobial activity against Corynebacterium striatum isolates by CLSI M45-A protocol based microdilution method
Corynebacterium jeikeium = assay: Antimicrobial activity against Corynebacterium jeikeium isolates by CLSI M45-A protocol based microdilution method
[4] = system: Corynebacterium amycolatum; assay: Antimicrobial activity against Corynebacterium amycolatum isolates by CLSI M45-A protocol based microdilution method
[5] = system: Corynebacterium pseudodiphtheriticum; assay: Antimicrobial activity against Corynebacterium pseudodiphtheriticum isolates by CLSI M45-A protocol based microdilution method
Corynebacterium xerosis = assay: Antimicrobial activity against Corynebacterium xerosis isolates by CLSI M45-A protocol based microdilution method
[6] = Rhodococcus (subgen. Prescottella) equi

CN(C)[C@@H]1C(O)=C(C(N)=O)C(=O)[C@@]2(O)C(O)=C3C(=O)c4c(O)cccc4[C@@](C)(O)[C@H]3C[C@@H]12 [TETRACYCLINE]
MIC50 [1]: 0.25 µg/mL (≈ 0.563 µM)
MIC50 [2]: 0.25 µg/mL (≈ 0.563 µM)
MIC90 [2]: 16 µg/mL (≈ 36 µM)
MIC50 [3]: 0.125 µg/mL (≈ 0.281 µM)
MIC90 [3]: 16 µg/mL (≈ 36 µM)
MIC50 (Prescottella equi; [6]): 8 µg/mL (≈ 18 µM)
MIC90 (Prescottella equi; [6]): 8 µg/mL (≈ 18 µM)
MIC50 (Listeria monocytogenes): 0.5 µg/mL (≈ 1.13 µM)
MIC90 (Listeria monocytogenes): 0.5 µg/mL (≈ 1.13 µM)
MIC50 (Corynebacterium striatum): 16 µg/mL (≈ 36 µM)
MIC90 (Corynebacterium striatum): > 32 µg/mL
MIC (Corynebacterium jeikeium): 0.06 µg/mL (≈ 0.135 µM)
MIC50 (Corynebacterium jeikeium): 0.06 µg/mL (≈ 0.135 µM)
MIC50 [4]: 0.125 µg/mL (≈ 0.281 µM)
MIC90 [4]: 0.5 µg/mL (≈ 1.13 µM)
MIC50 [5]: 0.125 µg/mL (≈ 0.281 µM)
MIC90 [5]: 0.25 µg/mL (≈ 0.563 µM)
MIC50 (Corynebacterium xerosis): 0.5 µg/mL (≈ 1.13 µM)

CN(C)c1ccc(O)c2c1C[C@H]1C[C@H]3[C@H](N(C)C)C(O)=C(C(N)=O)C(=O)[C@@]3(O)C(O)=C1C2=O [MINOCYCLINE]
MIC [1]: ≤ 0.03 µg/mL
MIC50 [1]: ≤ 0.03 µg/mL
MIC50 [2]: 0.06 µg/mL (≈ 0.131 µM)
MIC90 [2]: 0.5 µg/mL (≈ 1.09 µM)
MIC [3]: ≤ 0.03 µg/mL
MIC50 [3]: ≤ 0.03 µg/mL
MIC90 [3]: 4 µg/mL (≈ 8.74 µM)
MIC50 (Prescottella equi; [6]): 0.25 µg/mL (≈ 0.546 µM)
MIC90 (Prescottella equi; [6]): 0.25 µg/mL (≈ 0.546 µM)
MIC50 (Listeria monocytogenes): 0.06 µg/mL (≈ 0.131 µM)
MIC90 (Listeria monocytogenes): 0.06 µg/mL (≈ 0.131 µM)
MIC50 (Corynebacterium striatum): 4 µg/mL (≈ 8.74 µM)
MIC90 (Corynebacterium striatum): 8 µg/mL (≈ 17.5 µM)
MIC (Corynebacterium jeikeium): 0.06 µg/mL (≈ 0.131 µM)
MIC50 (Corynebacterium jeikeium): 0.06 µg/mL (≈ 0.131 µM)
MIC90 (Corynebacterium jeikeium): 0.25 µg/mL (≈ 0.546 µM)
MIC50 [4]: 0.06 µg/mL (≈ 0.131 µM)
MIC90 [4]: 0.25 µg/mL (≈ 0.546 µM)
MIC50 [5]: 0.06 µg/mL (≈ 0.131 µM)
MIC90 [5]: 0.06 µg/mL (≈ 0.131 µM)
MIC50 (Corynebacterium xerosis): 0.25 µg/mL (≈ 0.546 µM)

GENTAMICIN
MIC [1]: < 0.03 µg/mL
MIC50 [1]: 0.06 µg/mL
MIC50 [2]: > 32 µg/mL
MIC90 [2]: > 32 µg/mL
MIC50 [3]: 0.5 µg/mL
MIC90 [3]: 0.5 µg/mL
MIC50 (Prescottella equi): 0.5 µg/mL
MIC90 (Prescottella equi): 1 µg/mL
MIC50 (Listeria monocytogenes): 0.25 µg/mL
MIC90 (Listeria monocytogenes): 0.125 µg/mL
MIC50 (Corynebacterium striatum): 2 µg/mL
MIC90 (Corynebacterium striatum): 8 µg/mL
MIC50 (Corynebacterium jeikeium): > 32 µg/mL
MIC90 (Corynebacterium jeikeium): > 32 µg/mL
MIC50 [4]: 8 µg/mL
MIC90 [4]: 16 µg/mL
MIC50 [5]: 0.06 µg/mL
MIC90 [5]: 0.06 µg/mL
MIC (Corynebacterium xerosis): < 0.03 µg/mL
MIC50 (Corynebacterium xerosis): 8 µg/mL

C[C@H]1COc2c(N3CCN(C)CC3)c(F)cc3c(=O)c(C(=O)O)cn1c23.C[C@H]1COc2c(N3CCN(C)CC3)c(F)cc3c(=O)c(C(=O)O)cn1c23.O [LEVOFLOXACIN]
MIC50 [1]: 0.06 µg/mL
MIC50 [2]: > 32 µg/mL
MIC90 [2]: > 32 µg/mL
MIC50 [3]: 0.5 µg/mL
MIC90 [3]: 0.5 µg/mL
MIC50 (Prescottella equi; [6]): 1 µg/mL
MIC90 (Prescottella equi; [6]): 2 µg/mL
MIC50 (Listeria monocytogenes): 0.5 µg/mL
MIC90 (Listeria monocytogenes): 1 µg/mL
MIC50 (Corynebacterium striatum): > 32 µg/mL
MIC90 (Corynebacterium striatum): > 32 µg/mL
MIC50 (Corynebacterium jeikeium): 4 µg/mL
MIC90 (Corynebacterium jeikeium): > 32 µg/mL
MIC50 [4]: > 32 µg/mL
MIC90 [4]: > 32 µg/mL
MIC50 [5]: 0.25 µg/mL
MIC90 [5]: 4 µg/mL
MIC50 (Corynebacterium xerosis): 32 µg/mL

CCC[C@@H]1C[C@@H](C(=O)N[C@@H]([C@H]2O[C@H](SC)[C@H](O)[C@@H](O)[C@H]2O)[C@H](C)Cl)N(C)C1 [CLINDAMYCIN]
MIC50 [1]: > 16 µg/mL
MIC50 [2]: > 16 µg/mL
MIC90 [2]: > 16 µg/mL
MIC [3]: ≤ 0.015 µg/mL
MIC50 [3]: ≤ 0.015 µg/mL
MIC90 [3]: ≤ 0.015 µg/mL
MIC50 (Prescottella equi; [6]): 2 µg/mL (≈ 4.71 µM)
MIC90 (Prescottella equi; [6]): 8 µg/mL (≈ 18.8 µM)
MIC50 (Listeria monocytogenes): 1 µg/mL (≈ 2.35 µM)
MIC90 (Listeria monocytogenes): 2 µg/mL (≈ 4.71 µM)
MIC50 (Corynebacterium striatum): > 16 µg/mL
MIC90 (Corynebacterium striatum): > 16 µg/mL
MIC (Corynebacterium jeikeium): > 16 µg/mL
MIC50 (Corynebacterium jeikeium): > 16 µg/mL
MIC90 (Corynebacterium jeikeium): > 16 µg/mL
MIC50 [4]: > 16 µg/mL
MIC90 [4]: > 16 µg/mL
MIC50 [5]: > 16 µg/mL
MIC90 [5]: > 16 µg/mL
MIC50 (Corynebacterium xerosis): > 16 µg/mL

C[C@H]1c2cccc(O)c2C(=O)C2=C(O)[C@]3(O)C(=O)C(C(N)=O)=C(O)[C@@H](N(C)C)[C@@H]3[C@@H](O)[C@@H]21.O [DOXYCYCLINE]
MIC50 [1]: 0.25 µg/mL
MIC50 [2]: 0.125 µg/mL
MIC90 [2]: 4 µg/mL
MIC50 [3]: 0.125 µg/mL
MIC90 [3]: 8 µg/mL
MIC50 (Prescottella equi; [6]): 1 µg/mL
MIC90 (Prescottella equi; [6]): 1 µg/mL
MIC50 (Listeria monocytogenes): 0.125 µg/mL
MIC90 (Listeria monocytogenes): 0.125 µg/mL
MIC50 (Corynebacterium striatum): 8 µg/mL
MIC90 (Corynebacterium striatum): > 16 µg/mL
MIC50 (Corynebacterium jeikeium): 0.03 µg/mL
MIC90 (Corynebacterium jeikeium): 1 µg/mL
MIC50 [4]: 0.06 µg/mL
MIC90 [4]: 0.5 µg/mL
MIC50 [5]: 0.125 µg/mL
MIC90 [5]: 0.125 µg/mL
MIC50 (Corynebacterium xerosis): 0.5 µg/mL

CO/N=C(\C(=O)N[C@@H]1C(=O)N2C(C(=O)O)=C(COC(N)=O)CS[C@H]12)c1ccco1 [CEFUROXIME]
MIC50 [1]: 0.5 µg/mL (≈ 1.18 µM)
MIC50 [2]: > 32 µg/mL
MIC90 [2]: > 32 µg/mL
MIC50 [3]: 0.125 µg/mL (≈ 0.295 µM)
MIC90 [3]: 0.25 µg/mL (≈ 0.589 µM)
MIC50 (Prescottella equi; [6]): 8 µg/mL (≈ 18.9 µM)
MIC90 (Prescottella equi; [6]): 16 µg/mL (≈ 37.7 µM)
MIC50 (Listeria monocytogenes): > 32 µg/mL
MIC90 (Listeria monocytogenes): > 32 µg/mL
MIC50 (Corynebacterium striatum): 1 µg/mL (≈ 2.36 µM)
MIC90 (Corynebacterium striatum): 2 µg/mL (≈ 4.71 µM)
MIC50 (Corynebacterium jeikeium): > 32 µg/mL
MIC90 (Corynebacterium jeikeium): > 32 µg/mL
MIC50 [4]: 0.5 µg/mL (≈ 1.18 µM)
MIC90 [4]: 2 µg/mL (≈ 4.71 µM)
MIC50 [5]: 0.06 µg/mL (≈ 0.141 µM)
MIC90 [5]: 0.125 µg/mL (≈ 0.295 µM)
MIC50 (Corynebacterium xerosis): 2 µg/mL (≈ 4.71 µM)

CN[C@H](CC(C)C)C(=O)N[C@H]1C(=O)N[C@@H](CC(N)=O)C(=O)N[C@H]2C(=O)N[C@H]3C(=O)N[C@H](C(=O)N[C@H](C(=O)O)c4cc(O)cc(O)c4-c4cc3ccc4O)[C@H](O)c3ccc(c(Cl)c3)Oc3cc2cc(c3O[C@@H]2O[C@H](CO)[C@@H](O)[C@H](O)[C@H]2O[C@H]2C[C@](C)(N)[C@H](O)[C@H](C)O2)Oc2ccc(cc2Cl)[C@H]1O [VANCOMYCIN]
MIC50 [1]: 0.25 µg/mL (≈ 0.173 µM)
MIC50 [2]: 0.25 µg/mL (≈ 0.173 µM)
MIC90 [2]: 0.5 µg/mL (≈ 0.345 µM)
MIC50 [3]: 0.25 µg/mL (≈ 0.173 µM)
MIC90 [3]: 0.5 µg/mL (≈ 0.345 µM)
MIC50 (Prescottella equi; [6]): 0.5 µg/mL (≈ 0.345 µM)
MIC90 (Prescottella equi; [6]): 0.5 µg/mL (≈ 0.345 µM)
MIC50 (Listeria monocytogenes): 0.5 µg/mL (≈ 0.345 µM)
MIC90 (Listeria monocytogenes): 1 µg/mL (≈ 0.69 µM)
MIC50 (Corynebacterium striatum): 0.25 µg/mL (≈ 0.173 µM)
MIC90 (Corynebacterium striatum): 0.5 µg/mL (≈ 0.345 µM)
MIC (Corynebacterium jeikeium): 0.06 µg/mL (≈ 0.0414 µM)
MIC50 (Corynebacterium jeikeium): 0.06 µg/mL (≈ 0.0414 µM)
MIC90 (Corynebacterium jeikeium): 0.25 µg/mL (≈ 0.173 µM)
MIC50 [4]: 0.25 µg/mL (≈ 0.173 µM)
MIC90 [4]: 0.5 µg/mL (≈ 0.345 µM)
MIC50 [5]: 0.25 µg/mL (≈ 0.173 µM)
MIC90 [5]: 0.25 µg/mL (≈ 0.173 µM)
MIC50 (Corynebacterium xerosis): 0.25 µg/mL (≈ 0.173 µM)

CN(C)c1cc(NC(=O)CNC(C)(C)C)c(O)c2c1C[C@H]1C[C@H]3[C@H](N(C)C)C(O)=C(C(N)=O)C(=O)[C@@]3(O)C(O)=C1C2=O [TIGECYCLINE]
MIC [1]: ≤ 0.003 µg/mL
MIC50 [1]: ≤ 0.015 µg/mL
MIC50 [2]: 0.03 µg/mL (≈ 0.0512 µM)
MIC90 [2]: 0.06 µg/mL (≈ 0.102 µM)
MIC [3]: ≤ 0.015 µg/mL
MIC50 [3]: ≤ 0.015 µg/mL
MIC90 [3]: ≤ 0.015 µg/mL
MIC50 (Prescottella equi; [6]): 0.25 µg/mL (≈ 0.427 µM)
MIC90 (Prescottella equi; [6]): 0.5 µg/mL (≈ 0.854 µM)
MIC50 (Listeria monocytogenes): 0.06 µg/mL (≈ 0.102 µM)
MIC90 (Listeria monocytogenes): 0.125 µg/mL (≈ 0.213 µM)
MIC50 (Corynebacterium striatum): 0.5 µg/mL (≈ 0.854 µM)
MIC90 (Corynebacterium striatum): 1 µg/mL (≈ 1.71 µM)
MIC (Corynebacterium jeikeium): ≤ 0.015 µg/mL
MIC50 (Corynebacterium jeikeium): ≤ 0.015 µg/mL
MIC90 (Corynebacterium jeikeium): 0.03 µg/mL (≈ 0.0512 µM)
MIC50 [4]: 0.125 µg/mL (≈ 0.213 µM)
MIC90 [4]: 0.25 µg/mL (≈ 0.427 µM)
MIC [5]: ≤ 0.015 µg/mL
MIC50 [5]: ≤ 0.015 µg/mL
MIC90 [5]: 0.03 µg/mL (≈ 0.0512 µM)
MIC50 (Corynebacterium xerosis): 0.125 µg/mL (≈ 0.213 µM)
